# According to patent US12246034B2, “Animal feed supplement and method” (CAN TECHNOLOGIES, INC., priority 2014, dated 2025):
# Read-outs that look alike come from different tables or passages of the source.
# How the values were obtained:
# [1] = system: sows; details: for NBA (Number Born Alive) / TNB (Total Number Born) / Litter growth, 24 hour to 3 days / Litter growth, Start to 24 hour / Litter growth, Start to 3 days / Piglet weight, 24 hour / Piglet weight, 3 days / Piglet weight, Start / Birth weight: LS Means ± SEM; for NBD (Number Born Death), stillborn piglets / Mortality: log transformed, back-transformed to absolute values; for Litter weight, 24 hour / Litter weight, 3 days / Litter weight, Start: corrected for mortality and cross fostering; for Birth weight: litter
# Description: A field trial was conducted on a commercial farm in Denmark with 650 highly productive Danbred sows (Landrace x Yorkshire) inseminated with a pure line Duroc boar, between Nov. 17, 2014 and Jan. 16, 2015. A total of 139 sows (total number before analyzes) were included in the trial, divided over 3 subsequent sow groups farrowing over a time span of 6 weeks. For all analyzes SAS software (version 9.3, SAS Institute Inc., Cary, N.C.) was used. Sows received a dry meal transition feed (from gestation to lactation), fed from day 111 of gestation till day 5 of lactation, and were allocated to one of the two treatment groups based on parity. […] The total amount of calcium was equal between both experimental treatments. Number born alive (NBA), stillborn and mummies, litter birth weight, as well as back fat of the sows before farrowing (day 110 of gestation) and at weaning (day 24 of lactation) were measured. Litter weights at 24 hours and 3 days after birth were measured as well. On day 3 after birth blood samples were taken from 6 piglets (2 biggest, 2 medium and 2 smallest) from 65 litters of their tails when they were cut and analyzed on immunoglobulin G (IgG) concentration. Placentas of the sows were collected after the farrowing process was finished, stored in freezers and afterwards scored on redness for an indication of the vascularization of these placentas.
# [2] = system: sows; details: 0.1% calcium nitrate in phase 1 diet, 19 May 2014 till 16 Aug. 2014
# Description: 600 sows and all sows were fed two diets over the test period. The first diet (phase 1) was fed from approximately 5 days pre-farrowing until 5 days post-farrowing. The second diet (phase 2) was fed from day 5 post-farrowing until weaning.
# The following measurements were recorded as shown in TABLE 2A: (i) gestation length; (ii) sow reproductive performance was recorded right after farrowing (number of piglets born total, alive, stillborn); (iii) piglet; (iv) total piglets weaned; (v) weaning weights; and (vi) piglets per sow per year; and […].
# [3] = system: sows; details: for Probability of piglet Livability: 1-((stillborn + died pre weaning)/total pigs after cross fostering)
# Description: During lactation, sows were fed either the positive control or negative control standard lactation diet according to a step-up feeding schedule. Until farrowing the sows were fed a fixed amount of either the positive or negative controls of the standard lactation diet twice a day. After farrowing the amount of feed either the positive or negative controls of the standard lactation diet fed was increased gradually till a maximum of 8 kg/sow per day. The amount of which could be adjusted based on the appetite of the sow. Piglets were fed Ad libitum (no milk was provided other than from the sow a commercial creep feed (meal, dry) from day 4-16 of age and a pelleted commercial prestarter from day 16 till weaning. In total, 150 sows were allocated over the three rooms based on parity. Within 2 days after farrowing, litters were standardized to 13-14 piglets per sow.
# The following measurements were recorded as shown in TABLE 1C: (i) sow weight and backfat thickness when entering the farrowing room (day 111 of gestation) and at weaning (22 days post farrowing); (ii) sow reproductive performance was recorded right after farrowing (number of piglets born total, alive, stillborn, mummified); (iii) piglets weights were recorded at birth, day 5 after birth and at weaning; (iv) creep feed intake of piglets between day 4 and weaning was recorded; (v) number of piglets alive at day 4 and at weaning were registered; (vi) when piglets died, the reason for dying was also registered; and (vii) interventions during the birth process (e.g. the use of planate, oxytocin and birth assistance).
# [4] = 0.1% Bolifor CNF in transition feed, listed as Bolifor CNF ®
# [5] = 0.1% Bolifor CNF in transition feed, listed as Bolifor CNF®
# [6] = 0.1% Bolifor CNF, listed as Bolifor CNF ®
# [7] = 0.1% Bolifor CNF, listed as Bolifor CNF®
# [8] = 0.1% Bolifor CNF in lactation diet, means
# [9] = 0.1% Bolifor CNF, induction of sows as covariable
# [10] = 0.1% Bolifor CNF, induction of sows as covariable, listed as calcium nitrate
# [11] = piglets, 0.1% Bolifor CNF, corrected for lactation length
smiles,measurement,setting,value
"O=[N+]([O-])[O-].O=[N+]([O-])[O-].[Ca+2] [Bolifor CNF, calcium nitrate]",NBA (Number Born Alive),[1]; [4],16.84 ± 0.170
same,TNB (Total Number Born),[1]; [4],17.90 ± 0.460
same,NBA (Number Born Alive),[1]; [5],16.84
same,TNB (Total Number Born),[1]; [5],did not differ
same,"NBD (Number Born Death), stillborn piglets",[1]; [4],1.32 ± 0.006
same,"NBD (Number Born Death), stillborn piglets",[1]; [5],1.32
same,"Litter growth, 24 hour to 3 days",[1]; [6],1.80 ± 0.140 kg/day
same,"Litter growth, Start to 24 hour",[1]; [6],1.21 ± 0.161 kg/day
same,"Litter growth, Start to 3 days",[1]; [6],3.03 ± 0.234 kg/day
same,"Piglet weight, 24 hour",[1]; [6],1.41 ± 0.012 kg
same,"Piglet weight, 3 days",[1]; [6],1.55 ± 0.018 kg
same,"Piglet weight, Start",[1]; [6],1.32 ± 0.046 kg
same,"Litter growth, 24 hour to 3 days",[1]; [7],no differences were found
same,"Litter growth, Start to 24 hour",[1]; [7],no differences were found
same,"Litter growth, Start to 3 days",[1]; [7],no differences were found
same,"Piglet weight, 24 hour",[1]; [7],did not differ
same,"Piglet weight, 3 days",[1]; [7],did not differ
same,"Piglet weight, Start",[1]; [7],did not differ
same,"Colostrum, CI per piglet","[1]; 0.1% Bolifor CNF, calculated colostrum intake",222.02 g
same,"Colostrum, CI (Colostrum Intake)","[1]; 0.1% Bolifor CNF, calculated colostrum intake, listed as Bolifor CNF ®",2858.60 g
same,"Colostrum, CI (Colostrum Intake)","[1]; 0.1% Bolifor CNF, calculated colostrum intake, listed as Bolifor CNF®",No differences were found
same,"Litter weight, 24 hour",[1]; [6],18.14 kg
same,"Litter weight, 3 days",[1]; [6],19.93 kg
same,"Litter weight, Start",[1]; [6],16.70 kg
same,"Litter weight, 24 hour",[1]; [7],did not differ
same,"Litter weight, 3 days",[1]; [7],did not differ
same,"Litter weight, Start",[1]; [7],did not differ
same,"Piglet growth, 24 hour to 3 days",[1]; [6],0.140 kg/day
same,"Piglet growth, Start 3 days",[1]; [6],0.235 kg/day
same,"Piglet growth, Start to 24 hour",[1]; [6],0.093 kg/day
same,"Piglet growth, 24 hour to 3 days",[1]; [7],no differences were found
same,"Piglet growth, Start 3 days",[1]; [7],no differences were found
same,"Piglet growth, Start to 24 hour",[1]; [7],no differences were found
same,Mortality,[1]; [6],1.87
same,Mortality,[1]; [7],did not differ
same,Birth weight,[1]; [4],21.70 ± 0.614 kg
same,Birth weight,[1]; [5],did not differ
same,"NBD, highest parity group","[1]; parities >4, 0.1% Bolifor CNF in transition feed",1.21
same,Born Alive,[2],15.8
same,Mortality,[2],10.5%
same,Piglets/sow/year,[2],34.1
same,Pregnancy rate,[2],94.5%
same,Total born,[2],17.3
same,Weaning weight,[2],6.7 kg
same,Piglet Livability,[2]; listed as Calcium nitrate,82.7%
same,Piglets Weaned,[2]; listed as Calcium nitrate,14.3
same,Still Born,[2]; listed as Calcium nitrate,1.5
same,Piglet Livability,[2]; listed as calcium nitrate,increase
same,Piglets Weaned,[2]; listed as calcium nitrate,increase
same,Still Born,[2]; listed as calcium nitrate,decrease
same,Probability Born Mummified,[3]; 0.1% Bolifor CNF in lactation diet,2.3%
same,Total born,[3]; [8],16.3
same,Total born alive,[3]; [8],15.3
same,Total still born,[3]; [8],1.0
same,Total weaned,[3]; [8],13.1
same,Probability of piglet Livability,[3]; 0.1% Bolifor CNF,89.8
same,Probability of piglet Livability,"[3]; 0.1% Bolifor CNF, listed as calcium nitrate",numerically higher
same,Probability Still Born,[3]; [9],6.2%
same,Probability born alive,[3]; [9],93.8%
same,Probability of piglet mortality from cross fostering (day 4-5)-weaning,[3]; [9],2.0%
same,Probability of piglets alive at day 4-5,[3]; [9],92.5%
same,Probability Still Born,[3]; [10],numerically lower
same,Probability born alive,[3]; [10],numerically higher
same,ADG 0-5,"[3]; piglets, 0.1% Bolifor CNF",157 g/day
same,ADG 5-weaning,"[3]; piglets, 0.1% Bolifor CNF",245.3 g/day
same,Average birth weight,"[3]; piglets, 0.1% Bolifor CNF",1.36 kg
same,Average weight post fostering,"[3]; piglets, 0.1% Bolifor CNF",2.30 kg
same,Litter weight Pre fostering,"[3]; piglets, 0.1% Bolifor CNF",19.8 kg
same,Litter weight post fostering,"[3]; piglets, 0.1% Bolifor CNF, calculated, not measured",30.8 kg
same,Average weight at weaning,[3]; [11],6.71 kg
same,Litter weight at weaning,[3]; [11],82.0 kg
same,Litter weight at weaning,"[3]; piglets, 0.1% Bolifor CNF, corrected for lactation length, listed as calcium nitrate",numerically higher
